Where a SMILES comes first, the peptide text is derived from it.
Key:
Assay in all cases: microbe, parasite or virus in culture
[1] = test system: A. baumannii AYE; format: cell-based, Acinetobacter baumannii; settings: A. baumannii AYE (R)
How it was run: (§1)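 Peptides 128→2 μg/mL, 2-fold series; inoculum ~5 × 10^5 CFU/mL from overnight culture (OD600 0.01, mixed 1:1). MHB non-cation-adjusted for bacteria, RPMI 1640 + 2% glucose for fungi. 37 °C, 20 h, OD600. MIC50/MIC90 at 50%/90% inhibition; n ≥ 3.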

[2] = test system: A. baumannii ATCC 17978; format: cell-based, Acinetobacter baumannii; settings: A. baumannii ATCC 17978 (S)
How it was run: as §1

[3] = test system: C. albicans NCPF 3281; format: cell-based; settings: C. albicans NCPF 3281
How it was run: as §1

[4] = test system: C. glabrata NCPF 8018; format: cell-based; settings: C. glabrata NCPF 8018
How it was run: as §1

[5] = test system: C. parapsilosis NCPF 3209; format: cell-based; settings: C. parapsilosis NCPF 3209
How it was run: as §1

[6] = test system: C. krusei NCPF 3876; format: cell-based; settings: C. krusei NCPF 3876
How it was run: as §1

[7] = test system: C. tropicalis NCPF 8760; format: cell-based; settings: C. tropicalis NCPF 8760
How it was run: as §1

[8] = test system: E. coli LEC001; format: cell-based, Escherichia coli; settings: E. coli LEC001 (R)
How it was run: as §1

[9] = test system: E. coli NCTC 12923; format: cell-based, Escherichia coli; settings: E. coli NCTC 12923 (S)
How it was run: as §1

[10] = test system: P. aeruginosa NCTC 13437; format: cell-based, Pseudomonas aeruginosa; settings: P. aeruginosa NCTC 13437 (R)
How it was run: as §1

[11] = test system: K. pneumoniae M6; format: cell-based, Klebsiella pneumoniae; settings: K. pneumoniae M6 (S)
How it was run: as §1

[12] = test system: K. pneumoniae NCTC 13368; format: cell-based, Klebsiella pneumoniae; settings: K. pneumoniae NCTC 13368 (R)
How it was run: as §1

[13] = test system: S. aureus (MRSA) NCTC 13616; format: cell-based, Staphylococcus aureus; settings: S. aureus (MRSA) NCTC 13616 (R)
How it was run: as §1

[14] = test system: S. aureus (MRSA) 1199B; format: cell-based, Staphylococcus aureus; settings: S. aureus (MRSA) 1199B (R)
How it was run: as §1

[15] = test system: S. aureus (MRSA) USA300; format: cell-based, Staphylococcus aureus; settings: S. aureus (MRSA) USA300 (R)
How it was run: as §1

[16] = test system: S. aureus (MSSA) ATCC 9144; format: cell-based, Staphylococcus aureus; settings: S. aureus (MSSA) ATCC 9144 (S)
How it was run: as §1

[17] = MHB, 37 °C, 20 h, OD600, min. three biological repeats
[18] = 50% growth inhibition, RPMI 1640 + 2% glucose, 37 °C, 20 h
[19] = 90% growth inhibition, RPMI 1640 + 2% glucose, 37 °C, 20 h
[20] = MHB, ~5×10^5 CFU/mL, 37 °C, 20 h, OD600, min. three biological repeats

CC(C)C[C@H](NC(=O)[C@H](CCCCN)NC(=O)[C@H](CO)NC(=O)[C@H](CCCCN)NC(=O)[C@H](Cc1c[nH]c2ccccc12)NC(=O)[C@H](C)NC(=O)[C@H](CCCCN)NC(=O)[C@@H](N)CCCCN)C(=O)N[C@@H](C)C(=O)N[C@@H](CCCCN)C(=O)N[C@@H](CCCCN)C(=O)N[C@@H](CC(C)C)C(=O)N[C@@H](CCCNC(=N)N)C(=O)N[C@@H](C)C(=O)N[C@@H](CCCCN)C(=O)NCC(=O)N[C@@H](CCCCN)C(N)=O [PS-PB-14a] (H-KKAWKSKLAKKLRAKGK-NH2)
Modal MIC [1, 17]: > 128 µg/mL | Modal MIC ([1]; shown in µM): > 63.8 µM | Modal MIC [2, 17]: > 128 µg/mL | Modal MIC ([2]; shown in µM): > 63.8 µM | Modal MIC50 [3, 18]: > 128 µg/mL | Modal MIC90 [3, 19]: > 128 µg/mL | Modal MIC50 ([3]; shown in µM): > 63.8 µM | Modal MIC90 ([3]; shown in µM): > 63.8 µM | Modal MIC50 [4, 18]: > 128 µg/mL | Modal MIC90 [4, 19]: > 128 µg/mL | Modal MIC50 ([4]; shown in µM): > 63.8 µM | Modal MIC90 ([4]; shown in µM): > 63.8 µM | Modal MIC50 [5, 18]: > 128 µg/mL | Modal MIC90 [5, 19]: > 128 µg/mL | Modal MIC50 ([5]; shown in µM): > 63.8 µM | Modal MIC90 ([5]; shown in µM): > 63.8 µM | Modal MIC50 [6, 18]: > 128 µg/mL | Modal MIC90 [6, 19]: > 128 µg/mL | Modal MIC50 ([6]; shown in µM): > 63.8 µM | Modal MIC90 ([6]; shown in µM): > 63.8 µM | Modal MIC50 ([7]; shown in µM): 31.9 µM | Modal MIC90 ([7]; shown in µM): 31.9 µM | Modal MIC [8, 17]: > 128 µg/mL | Modal MIC ([8]; shown in µM): > 63.8 µM | Modal MIC [9, 20]: > 128 µg/mL | Modal MIC ([9]; shown in µM): > 63.8 µM | Modal MIC [10, 17]: > 128 µg/mL | Modal MIC ([10]; shown in µM): > 63.8 µM | Modal MIC [11, 17]: > 128 µg/mL | Modal MIC ([11]; shown in µM): > 63.8 µM | Modal MIC [12, 17]: > 128 µg/mL | Modal MIC ([12]; shown in µM): > 63.8 µM | Modal MIC [13, 17]: > 128 µg/mL | Modal MIC ([13]; shown in µM): > 63.8 µM | Modal MIC [14, 17]: > 128 µg/mL | Modal MIC ([14]; shown in µM): > 63.8 µM | Modal MIC [15, 17]: > 128 µg/mL | Modal MIC ([15]; shown in µM): > 63.8 µM | Modal MIC [16, 17]: > 128 µg/mL | Modal MIC ([16]; shown in µM): > 63.8 µM

KCLTLRSLKKTLKFCASGRT-NH2 [X1-20a, novel amidated frog AMP derivative, Xenopus laevis]
Modal MIC [1, 17]: 16 µg/mL | Modal MIC ([1]; shown in µM): 6.9 µM | Modal MIC [2, 17]: 16 µg/mL | Modal MIC ([2]; shown in µM): 6.9 µM | Modal MIC50 [3, 18]: > 128 µg/mL | Modal MIC90 [3, 19]: > 128 µg/mL | Modal MIC50 ([3]; shown in µM): > 55 µM | Modal MIC90 ([3]; shown in µM): > 55 µM | Modal MIC50 [4, 18]: > 128 µg/mL | Modal MIC90 [4, 19]: > 128 µg/mL | Modal MIC50 ([4]; shown in µM): > 55 µM | Modal MIC90 ([4]; shown in µM): > 55 µM | Modal MIC50 [5, 18]: > 128 µg/mL | Modal MIC90 [5, 19]: > 128 µg/mL | Modal MIC50 ([5]; shown in µM): > 55 µM | Modal MIC90 ([5]; shown in µM): > 55 µM | Modal MIC50 [6, 18]: 64 µg/mL | Modal MIC90 [6, 19]: 64 µg/mL | Modal MIC50 ([6]; shown in µM): 27.5 µM | Modal MIC90 ([6]; shown in µM): 27.5 µM | Modal MIC50 [7, 18]: 16 µg/mL | Modal MIC90 [7, 19]: 32 µg/mL | Modal MIC50 ([7]; shown in µM): 6.9 µM | Modal MIC90 ([7]; shown in µM): 13.8 µM | Modal MIC [8, 17]: > 128 µg/mL | Modal MIC ([8]; shown in µM): > 55 µM | Modal MIC [9, 20]: 8 µg/mL | Modal MIC ([9]; shown in µM): 3.4 µM | Modal MIC [10, 17]: > 128 µg/mL | Modal MIC ([10]; shown in µM): > 55 µM | Modal MIC [11, 17]: 32 µg/mL | Modal MIC ([11]; shown in µM): 13.8 µM | Modal MIC [12, 17]: 64 µg/mL | Modal MIC ([12]; shown in µM): 27.5 µM | Modal MIC [13, 17]: > 128 µg/mL | Modal MIC ([13]; shown in µM): > 55 µM | Modal MIC ([14]; shown in µM): > 55 µM | Modal MIC [15, 17]: > 128 µg/mL | Modal MIC ([15]; shown in µM): > 55 µM | Modal MIC [16, 17]: 16 µg/mL | Modal MIC ([16]; shown in µM): 6.9 µM
